Reference: patent US20260102377A1, “COMPOSITIONS AND METHODS FOR TREATING MYASTHENIA GRAVIS” (priority 2022, published 2026)
Values joined by “and” are separate entries in the source; they are usually repeats but may differ in a detail not shown here. Equal entries are not always repeated.

Tested on: EAMG rats
Assay: Grip strength test after single dose of Mestinon and CIC-1 inhibitor alone or in combination
Format: in vivo, rat
Conditions: per oral, 45 minutes post dosing, 0.375 mg/kg Mestinon, 20 mg/kg NMD670 or both
Protocol: To induce EAMG, 250 μL of emulsion of Complete Freund's Adjuvant, consisting of heat-inactivated Mycobacterium tuberculosis H37Ra in non-metabolizable oils, together with Phosphate-Buffered Saline (PBS) and 80 μg of the extracellular α-domain peptide fragment of the human nicotinic acetylcholine receptor (antigen) was injected subcutaneously in seven-week-old, anaesthetized Lewis rats. The disease-inducing antigen was supplied by the Hellenic Pasteur institute3. The emulsion was deposited at the tail base, left hindleg, and right foreleg. After injection, animals were allowed to recover and returned to their home cage maintained in ventilated racks under controlled temperature (20 to 22° C.) and humidity (˜55%) control, under a 12-h light/12-h dark cycle with food and water provided ad libitum. The animals had pathogen free status and the housing and changing system was designed to assure that the pathogen free status was preserved during the study. The EAMG rats were observed, weighed, and scored for MG symptoms weekly until symptoms of MG developed, whereafter animals were observed daily.
In EAMG animals with severe MG symptoms the effects of CIC-1 inhibitor and Mestinon (pyridostigmine) alone or in combination was assessed. […] The study was blinded to both the experimenter and during subsequent analysis. Animals were subjected to grip strength test before compound administration, as described above and then dosed per oral with either 0.375 mg/kg pyridostigmine bromide (Mestinon) (CAS-no 101-26-8), 20 mg/kg NMD670 or a combination of both pyridostigmine and NMD670. Grip strength was tested 45 minutes post dosing. […] The change in grip strengths was calculated for individual animals relative to the results obtained prior to administration of test article and then averaged.
Grip strength was measured on a BIOSEB BIO-GT3 Grip strength meter (force transducer, S/N 180271). […] Care was taken to ensure that the force recorded reflected the grip strength of the rat and not the force of the pulls conducted by the operator. […]

For `CN(C)C(=O)Oc1ccc[n+](C)c1` [Mestinon, pyridostigmine bromide, reference compound], the “Increase in Pulled Force (%)” value was 5±4% and 5.3 ± 3.8%.
